53 compounds from US11319315B2, “Cyclohexyl acid triazole azoles as LPA antagonists” (BRISTOL-MYERS SQUIBB COMPANY, priority 2017, dated 2022) can be followed below.

The experiment has as its target T1, human LPA1 (Homo sapiens, UniProt Q92633).
T1 construct: expressed in transfected cells; host or cells: Chinese hamster ovary (CHO) cells
As to the kind of experiment: LPA1 functional antagonist assay (LPA-induced calcium flux in CHO cells overexpressing human LPA1). Type of experiment: cell-based. As to conditions: inhibition of calcium flux induced by 10 nM LPA, CHO cells overexpressing human LPA1; read-out: hLPA1 IC50. The gist of the method: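 Calcium flux was triggered by 10 nM LPA after 20 min room-temperature compound pre-incubation (final 0.08 nM to 5 μM, 0.5% DMSO) in human LPA1-overexpressing CHO cells carrying calcium dye. Buffer: HBSS with Ca/Mg, 20 mM HEPES, 0.1% fatty-acid-free BSA; IC50s from 4-parameter logistic fits.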
On the technique in general: Calcium flux is commonly read through the fluorescence of an indicator in the cells.

Molecules are shown by their SMILES.

T1 sequence (Q92633 whole entry): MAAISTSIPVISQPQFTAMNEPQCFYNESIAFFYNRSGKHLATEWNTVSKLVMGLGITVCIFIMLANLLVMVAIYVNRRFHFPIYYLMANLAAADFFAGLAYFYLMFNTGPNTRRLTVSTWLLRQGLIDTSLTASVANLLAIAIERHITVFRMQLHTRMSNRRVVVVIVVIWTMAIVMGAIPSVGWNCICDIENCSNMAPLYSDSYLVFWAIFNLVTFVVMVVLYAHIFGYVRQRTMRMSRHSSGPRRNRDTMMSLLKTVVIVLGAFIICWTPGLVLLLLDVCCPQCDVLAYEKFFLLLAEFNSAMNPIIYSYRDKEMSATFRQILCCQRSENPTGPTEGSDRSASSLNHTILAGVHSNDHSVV

`Cc1nc(-c2nnn(C)c2Cn2cc(C3(O)CCCCC3)nn2)ccc1O[C@H]1CCC[C@H](C(=O)O)C1` [Example 89]: the IC50 amounted to 3270 nM.

`CCCCc1cn(Cc2c(-c3ccc(O[C@H]4CCC[C@H](C(=O)O)C4)c(C#N)n3)nnn2C)nn1` [Example 90]: the IC50 was 78 nM.

For `Cn1nnc(-c2ccc(O[C@H]3CCC[C@H](C(=O)O)C3)c(C#N)n2)c1Cn1cc(Cc2ccccc2)nn1` [Example 91], the half-inhibitory concentration (IC50) was determined as 109 nM.

`Cn1nnc(-c2ccc(O[C@H]3CCC[C@H](C(=O)O)C3)c(C#N)n2)c1Cn1cc(CC2CC2)nn1` [Example 92]: the half-inhibitory concentration (IC50) is 110 nM.

With `Cn1nnc(-c2ccc(O[C@H]3CCC[C@H](C(=O)O)C3)c(C#N)n2)c1Cn1cc(CC2CCCC2)nn1` [Example 93], the concentration for half-maximal inhibition (IC50) worked out at 60 nM.

As for `Cn1nnc(-c2ccc(O[C@H]3CCC[C@H](C(=O)O)C3)c(C#N)n2)c1Cn1cc(CC2CCCCC2)nn1` [Example 94], the IC50 is 54 nM.

With `CCc1nc(-c2nnn(C)c2Cn2cc(Cc3ccccc3)nn2)ccc1O[C@H]1CCC[C@H](C(=O)O)C1` [Example 95], the half-maximal inhibitory concentration (IC50) is 7 nM.

Take `CCCCc1cn(Cc2c(-c3ccc(O[C@H]4CCC[C@H](C(=O)O)C4)c(CC)n3)nnn2C)nn1` [Example 96]: the IC50 was determined as 9 nM.

For the compound `CCc1nc(-c2nnn(C)c2Cn2cc(CC3CC3)nn2)ccc1O[C@H]1CCC[C@H](C(=O)O)C1` [Example 97], the 50% inhibitory concentration (IC50) was found to be 8 nM.

`Cc1sc(NCc2c(-c3ccc(O[C@H]4CCC[C@H](C(=O)O)C4)cn3)nnn2C)nc1-c1ccccn1` [Example 98]: the concentration for half-maximal inhibition (IC50) was 1050 nM.

Turning to `Cc1nc(-c2nnn(C)c2CNc2nc(C3CCC3)ns2)ccc1O[C@H]1CCC[C@H](C(=O)O)C1` [Example 99], the concentration for half-maximal inhibition (IC50) is 73 nM.

For the compound `Cc1nc(-c2nnn(C)c2CNc2nc(C3CCCC3)ns2)ccc1O[C@H]1CCC[C@H](C(=O)O)C1` [Example 100], the half-inhibitory concentration (IC50) amounted to 77 nM.

In the case of `Cc1nc(-c2nnn(C)c2CNc2nc(-c3ccccn3)ns2)ccc1O[C@H]1CCC[C@H](C(=O)O)C1` [Example 101], the 50% inhibitory concentration (IC50) was 483 nM.

Take `Cc1nc(-c2nnn(C)c2CNc2nc(CC(C)C)ns2)ccc1O[C@H]1CCC[C@H](C(=O)O)C1` [Example 102]: the half-maximal inhibitory concentration (IC50) worked out at 98 nM.

Turning to `Cc1nc(-c2nnn(C)c2CNc2nc(C3CC3)ns2)ccc1O[C@H]1CCC[C@H](C(=O)O)C1` [Example 103], the IC50 was 510 nM.

Turning to `CCCc1nsc(NCc2c(-c3ccc(O[C@H]4CCC[C@H](C(=O)O)C4)c(C)n3)nnn2C)n1` [Example 104], the IC50 came to 109 nM.

As to `Cc1nc(-c2nnn(C)c2Cn2nnc(CC3CC3)n2)ccc1O[C@H]1CCC[C@H](C(=O)O)C1` [Example 105, (1 S,3 S)-3-((6-(5-((5-(cyclopropylmethyl)-2H-tetrazol-2-yl)methyl)-1-methyl-1H-1,2,3-triazol-4-yl)-2-methylpyridin-3-yl)oxy)cyclohexane-1-carboxylic acid], the IC50 turned out to be 29 nM.

With `Cc1nc(-c2nnn(C)c2Cn2nnnc2CC2CC2)ccc1O[C@H]1CCC[C@H](C(=O)O)C1` [Example 106, (1S,3S)-3-((6-(5-((5-(cyclopropylmethyl)-1H-tetrazol-1-yl)methyl)-1-methyl-1H-1,2,3-triazol-4-yl)-2-methylpyridin-3-yl)oxy)cyclohexane-1-carboxylic acid], the concentration for half-maximal inhibition (IC50) is 147 nM.

With `Cc1nc(-c2nnn(C)c2Cn2nnc(-c3ccccc3)n2)ccc1O[C@H]1CCC[C@H](C(=O)O)C1` [Example 107], the half-inhibitory concentration (IC50) was 42 nM.

Regarding `Cc1nc(-c2nnn(C)c2Cn2nnnc2-c2ccccc2)ccc1O[C@H]1CCC[C@H](C(=O)O)C1` [Example 108], the IC50 is 239 nM.

For the compound `Cc1nc(-c2nnn(C)c2Cn2nnc(Cc3ccccc3)n2)ccc1O[C@H]1CCC[C@H](C(=O)O)C1` [Example 109], the half-maximal inhibitory concentration (IC50) turned out to be 14 nM.

For the compound `Cc1nc(-c2nnn(C)c2Cn2nnnc2Cc2ccccc2)ccc1O[C@H]1CCC[C@H](C(=O)O)C1` [Example 110], the IC50 was 207 nM.

Consider `CCCCc1nnn(Cc2c(-c3ccc(O[C@H]4CCC[C@H](C(=O)O)C4)c(C)n3)nnn2C)n1` [Example 111], for which the IC50 was found to be 34 nM.

Turning to `CCCCc1nnnn1Cc1c(-c2ccc(O[C@H]3CCC[C@H](C(=O)O)C3)c(C)n2)nnn1C` [Example 112], the half-maximal inhibitory concentration (IC50) turned out to be 176 nM.

In the case of `CCCc1nnn(Cc2c(-c3ccc(O[C@H]4CCC[C@H](C(=O)O)C4)c(C)n3)nnn2C)n1` [Example 113], the IC50 was found to be 30 nM.

For the compound `CCCc1nnnn1Cc1c(-c2ccc(O[C@H]3CCC[C@H](C(=O)O)C3)c(C)n2)nnn1C` [Example 114], the half-inhibitory concentration (IC50) was 125 nM.

`Cc1nc(-c2nnn(C)c2COc2ncn(-c3ccccc3)n2)ccc1O[C@H]1CCC[C@H](C(=O)O)C1` [Example 115, (1S,3S)-3-((2-methyl-6-(1-methyl-5-(((1-phenyl-1H-1,2,4-triazol-3-yl)oxy)methyl)-1H-1,2,3-triazol-4-yl)pyridin-3-yl)oxy)cyclohexane-1-carboxylic acid]: the 50% inhibitory concentration (IC50) turned out to be 47 nM.

Turning to `Cc1nc(-c2nnn(C)c2COc2nc(C3CC3)ns2)ccc1O[C@H]1CCC[C@H](C(=O)O)C1` [Example 116, (1S,3S)-3-((6-(5-(((3-cyclopropyl-1,2,4-thiadiazol-5-yl)oxy)methyl)-1-methyl-1H-1,2,3-triazol-4-yl)-2-methylpyridin-3-yl)oxy)cyclohexane-1-carboxylic acid], the concentration for half-maximal inhibition (IC50) worked out at 405 nM.

For the compound `Cc1nc(-c2nnn(C)c2COc2noc(CC3CC3)n2)ccc1O[C@H]1CCC[C@H](C(=O)O)C1` [Example 117, (1S,3S)-3-((6-(5-(((5-(cyclopropylmethyl)-1,2,4-oxadiazol-3-yl)oxy)methyl)-1-methyl-1H-1,2,3-triazol-4-yl)-2-methylpyridin-3-yl)oxy)cyclohexane-1-carboxylic acid], the half-inhibitory concentration (IC50) is 11 nM.

Take `CCc1nsc(NCc2c(-c3ccc(O[C@H]4CCC[C@H](C(=O)O)C4)c(C)n3)nnn2C)n1` [Example 118]: the IC50 turned out to be 919 nM.

Turning to `Cc1nc(-c2nnn(C)c2CNc2nc(C(F)(F)F)ns2)ccc1O[C@H]1CCC[C@H](C(=O)O)C1` [Example 119], the IC50 was found to be 60 nM.

As for `Cc1nc(-c2nnn(C)c2CNc2nsc(C(C)C)n2)ccc1O[C@H]1CCC[C@H](C(=O)O)C1` [Example 120], the concentration for half-maximal inhibition (IC50) turned out to be 25 nM.

With `Cc1nc(-c2nnn(C)c2CNc2nsc(Nc3ccccc3)n2)ccc1O[C@H]1CCC[C@H](C(=O)O)C1` [Example 121], the half-maximal inhibitory concentration (IC50) worked out at 470 nM.

Take `Cc1nc(-c2nnn(C)c2CNc2nnc(C(C)C)s2)ccc1O[C@H]1CCC[C@H](C(=O)O)C1` [Example 122]: the IC50 was 555 nM.

Regarding `Cc1nc(-c2nnn(C)c2CNc2cc(C3CC3)nn2C)ccc1O[C@H]1CCC[C@H](C(=O)O)C1` [Example 123], the IC50 was 1290 nM.

Regarding `Cc1nc(-c2nnn(C)c2CNc2cnn(C(C)C)n2)ccc1O[C@H]1CCC[C@H](C(=O)O)C1` [Example 124], the IC50 came to 337 nM.

`Cc1nc(-c2nnn(C)c2CNc2cc(C(C)C)nn2C)ccc1O[C@H]1CCC[C@H](C(=O)O)C1` [Example 125]: the IC50 turned out to be 627 nM.

For `Cc1nc(-c2nnn(C)c2CNc2ncn(C(C)C)n2)ccc1O[C@H]1CCC[C@H](C(=O)O)C1` [Example 126], the IC50 amounted to 1490 nM.

As to `CCCc1nsc(OCc2c(-c3ccc(O[C@H]4CCC[C@H](C(=O)O)C4)c(C)n3)nnn2C)n1` [Example 127], the half-inhibitory concentration (IC50) came to 425 nM.

`Cc1nc(-c2nnn(C)c2COc2nc(C(C)C)ns2)ccc1O[C@H]1CCC[C@H](C(=O)O)C1` [Example 128]: the IC50 was found to be 98 nM.

On to `CCc1nc(OCc2c(-c3ccc(O[C@H]4CCC[C@H](C(=O)O)C4)c(C)n3)nnn2C)no1` [Example 129], for which the IC50 stood at 41 nM.

`Cc1nc(-c2nnn(C)c2COc2noc(C(C)C)n2)ccc1O[C@H]1CCC[C@H](C(=O)O)C1` [Example 130]: the 50% inhibitory concentration (IC50) was 26 nM.

On to `CCCc1nc(OCc2c(-c3ccc(O[C@H]4CCC[C@H](C(=O)O)C4)c(C)n3)nnn2C)no1` [Example 131], for which the half-inhibitory concentration (IC50) is 19 nM.

`CCCc1nnc(OCc2c(-c3ccc(O[C@H]4CCC[C@H](C(=O)O)C4)c(C)n3)nnn2C)s1` [Example 132]: the half-inhibitory concentration (IC50) is 97 nM.

With `Cc1nc(-c2nnn(C)c2COc2cc(-c3ccccn3)on2)ccc1O[C@H]1CCC[C@H](C(=O)O)C1` [Example 133], the IC50 came to 208 nM.

For `Cc1nc(-c2nnn(C)c2COc2noc(C3CC3)n2)ccc1O[C@H]1CCC[C@H](C(=O)O)C1` [Example 134], the 50% inhibitory concentration (IC50) was 25 nM.

For the compound `Cc1nc(-c2nnn(C)c2COc2ncn(CC(C)C)n2)ccc1O[C@H]1CCC[C@H](C(=O)O)C1` [Example 135, (1 S,3 S)-3-((6-(5-(((1-Isobutyl-1H-1,2,4-triazol-3-yl)oxy)methyl)-1-methyl-1H-1,2,3-triazol-4-yl)-2-methylpyridin-3-yl)oxy)cyclohexane-1-carboxylic acid], the IC50 worked out at 32 nM.

As to `Cc1nc(-c2nnn(C)c2COc2nnn(CC(C)C)n2)ccc1O[C@H]1CCC[C@H](C(=O)O)C1` [Example 136, (1S,3S)-3-((6-(5-(((2-Isobutyl-2H-tetrazol-5-yl)oxy)methyl)-1-methyl-1H-1,2,3-triazol-4-yl)-2-methylpyridin-3-yl)oxy)cyclohexane-1-carboxylic acid], the half-maximal inhibitory concentration (IC50) is 20 nM.

For the compound `CC(C)c1nc(NCc2c(-c3ccc(O[C@H]4CCC[C@H](C(=O)O)C4)cn3)nnn2C)ns1` [Example 137], the concentration for half-maximal inhibition (IC50) was found to be 320 nM.

In the case of `CCCc1cnc(NCc2c(-c3ccc(O[C@H]4CCC[C@H](C(=O)O)C4)c(C)n3)nnn2C)o1` [Example 138], the IC50 came to 36 nM.

In the case of `Cc1nc(-c2nnn(C)c2CNc2ncc(C(C)C)o2)ccc1O[C@H]1CCC[C@H](C(=O)O)C1` [Example 139], the IC50 amounted to 38 nM.

Take `Cc1nc(-c2nnn(C)c2COc2ncn(CC3CC3)n2)ccc1O[C@H]1CCC[C@H](C(=O)O)C1` [Example 140]: the half-inhibitory concentration (IC50) was found to be 57 nM.

`CCCCn1cnc(OCc2c(-c3ccc(O[C@H]4CCC[C@H](C(=O)O)C4)c(C)n3)nnn2C)n1` [Example 141]: the IC50 is 71 nM.

Usually IC50 stands for the concentration that gives 50% inhibition.
